Data reported in ChEMBL document CHEMBL1201862, “PubChem BioAssay data set” (2004).
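Each compound was tested at five concentrations against cells in 96-well plates for 48 hours. At the GI50, growth is halved.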 Calls of active or inactive are those of the source. Cut-off read from the data, not from the text of the source: active = GI50 up to about 1.1 µM and inactive = higher.

Experiments:
Assay in all cases: DTP human tumour cell line panel, 48 h
786-0 = system: 786-0
CAKI-1 = system: CAKI-1
HT-29 = system: HT-29
IGROV-1 = system: IGROV-1
KM12 = system: KM12
LOX IMVI = system: LOX IMVI
MOLT-4 = system: MOLT-4
Malme-3M = system: Malme-3M
NCI-H226 = system: NCI-H226
NCI-H460 = system: NCI-H460
NCI-H522 = system: NCI-H522
PC-3 = system: PC-3
SF-539 = system: SF-539
SNB-75 = system: SNB-75
SR = system: SR
T47D = system: T47D
UACC-62 = system: UACC-62
UO-31 = system: UO-31
HOP-92 = system: HOP-92
OVCAR-3 = system: OVCAR-3

| SMILES | GI50 (786-0) | GI50 (CAKI-1) | GI50 (HT-29) | GI50 (IGROV-1) | GI50 (KM12) | GI50 (LOX IMVI) | GI50 (MOLT-4) | GI50 (Malme-3M) | GI50 (NCI-H226) | GI50 (NCI-H460) | GI50 (NCI-H522) | GI50 (PC-3) | GI50 (SF-539) | GI50 (SNB-75) | GI50 (SR) | GI50 (T47D) | GI50 (UACC-62) | GI50 (UO-31) | GI50 (HOP-92) | GI50 (OVCAR-3) |
| --- | --- | --- | --- | --- | --- | --- | --- | --- | --- | --- | --- | --- | --- | --- | --- | --- | --- | --- | --- | --- |
| CC(=O)NC1c2ccccc2C(C)(C)C12CCC1(CC2)OCCO1 (stereo not given) | > 100 µM (inactive) | > 100 µM (inactive) | > 100 µM (inactive) | > 100 µM (inactive) | > 100 µM (inactive) | > 100 µM (inactive) | > 100 µM (inactive) | 98.6 µM (inactive) | > 100 µM (inactive) | > 10 µM (inactive) | > 100 µM (inactive) | > 100 µM (inactive) | > 100 µM (inactive) | > 100 µM (inactive) | > 100 µM (inactive) | > 100 µM (inactive) | > 100 µM (inactive) | > 100 µM (inactive) | – | – |
| O=C1OC(=O)C2=C1C(c1cccs1)C=C(c1cccnc1)N2c1ccncc1 (stereo not given) | 17.3 µM (inactive) | 15.1 µM (inactive) | 16.8 µM (inactive) | 13.8 µM (inactive) | 13.4 µM (inactive) | 13.2 µM (inactive) | 23.1 µM (inactive) | – | 21.6 µM (inactive) | 17.3 µM (inactive) | 13.8 µM (inactive) | 12.2 µM (inactive) | – | 15.2 µM (inactive) | 1.12 µM (active) | 18.2 µM (inactive) | 19.9 µM (inactive) | 15.6 µM (inactive) | 12.8 µM (inactive) | 13.4 µM (inactive) |
| COc1cccc(NC(=O)CC(=O)N2N=C(C)C(/N=N/c3ccc(C(=O)O)cc3)C2=O)c1 (stereo not given) | > 100 µM (inactive) | > 100 µM (inactive) | 93.8 µM (inactive) | 46.7 µM (inactive) | > 100 µM (inactive) | > 100 µM (inactive) | – | 56.6 µM (inactive) | – | – | 43.1 µM (inactive) | > 100 µM (inactive) | > 100 µM (inactive) | 16.6 µM (inactive) | > 100 µM (inactive) | > 100 µM (inactive) | > 100 µM (inactive) | > 100 µM (inactive) | – | > 100 µM (inactive) |
| O=C1Oc2ccccc2N/C1=C/C(=O)c1ccc(Cl)cc1 | > 100 µM (inactive) | > 100 µM (inactive) | > 100 µM (inactive) | > 100 µM (inactive) | > 100 µM (inactive) | – | > 100 µM (inactive) | > 100 µM (inactive) | > 100 µM (inactive) | > 100 µM (inactive) | 38.1 µM (inactive) | 28.1 µM (inactive) | 46.9 µM (inactive) | > 100 µM (inactive) | 39.4 µM (inactive) | 47.5 µM (inactive) | 32.4 µM (inactive) | 73.5 µM (inactive) | – | 37.9 µM (inactive) |
| Cc1c2cnccc2c(C)c2c1[nH]c1ccc(O)cc12 | 0.241 µM (active) | 1.43 µM (inactive) | 1.51 µM (inactive) | 1.85 µM (inactive) | 0.962 µM (active) | 0.342 µM (active) | 0.498 µM (active) | 1.35 µM (inactive) | 0.328 µM (active) | 0.458 µM (active) | 2.82 µM (inactive) | 2.15 µM (inactive) | 1.07 µM (active) | 1.87 µM (inactive) | 0.31 µM (active) | 5.92 µM (inactive) | 7.76 µM (inactive) | – | – | 1.13 µM (inactive) |
| C=C1CN=C(Nc2ccc(Cl)cc2)S1 | > 100 µM (inactive) | > 10 µM (inactive) | > 100 µM (inactive) | > 100 µM (inactive) | 66.7 µM (inactive) | 62.1 µM (inactive) | > 10 µM (inactive) | > 100 µM (inactive) | – | > 100 µM (inactive) | – | > 100 µM (inactive) | > 100 µM (inactive) | > 100 µM (inactive) | 52.8 µM (inactive) | > 100 µM (inactive) | – | > 100 µM (inactive) | 28.2 µM (inactive) | > 100 µM (inactive) |
| COc1cc(O)c2c(=O)c(O)c(-c3ccc(O)c(OC)c3)oc2c1 [RHAMNAZIN] | 3.44 µM (inactive) | 3.5 µM (inactive) | 44.2 µM (inactive) | > 100 µM (inactive) | 3.47 µM (inactive) | 3.19 µM (inactive) | 4.41 µM (inactive) | > 100 µM (inactive) | > 26.5 µM (inactive) | 2.64 µM (inactive) | 2.3 µM (inactive) | 11 µM (inactive) | 3.7 µM (inactive) | 2.28 µM (inactive) | – | > 100 µM (inactive) | – | – | 0.838 µM (active) | 2.52 µM (inactive) |
| Cc1ccc(C(=O)N/N=C(\N=N\c2cccc(C)c2)c2ccc(N(CCC#N)CCC#N)cc2C)cc1 | – | > 100 µM (inactive) | 34.4 µM (inactive) | 34.3 µM (inactive) | 31.8 µM (inactive) | 88.9 µM (inactive) | 38.9 µM (inactive) | – | 55.2 µM (inactive) | 52.7 µM (inactive) | – | 58.3 µM (inactive) | 64.7 µM (inactive) | 47.5 µM (inactive) | 55.1 µM (inactive) | 44 µM (inactive) | 57.1 µM (inactive) | > 100 µM (inactive) | 34 µM (inactive) | 78.9 µM (inactive) |
| COc1ccc2c(C)cc(C)nc2n1 | > 100 µM (inactive) | > 100 µM (inactive) | > 100 µM (inactive) | > 100 µM (inactive) | > 100 µM (inactive) | > 100 µM (inactive) | > 100 µM (inactive) | > 100 µM (inactive) | – | > 100 µM (inactive) | > 100 µM (inactive) | > 100 µM (inactive) | – | > 100 µM (inactive) | > 100 µM (inactive) | > 100 µM (inactive) | > 100 µM (inactive) | > 100 µM (inactive) | > 100 µM (inactive) | > 100 µM (inactive) |
| CSc1c(C#N)c2n(c3ccccc13)c1ccccc1[n+]2C | 32.7 µM (inactive) | 21.3 µM (inactive) | 21 µM (inactive) | 33.2 µM (inactive) | 28.5 µM (inactive) | 33.1 µM (inactive) | 12.9 µM (inactive) | 16 µM (inactive) | – | 26.4 µM (inactive) | 12.3 µM (inactive) | 26.7 µM (inactive) | 22.4 µM (inactive) | 37.2 µM (inactive) | > 100 µM (inactive) | 30.1 µM (inactive) | 16.9 µM (inactive) | 18.5 µM (inactive) | 33.5 µM (inactive) | 37.4 µM (inactive) |
| C[Si](C)(C)C#CCOC=C1CC1 | 47.1 µM (inactive) | > 100 µM (inactive) | > 100 µM (inactive) | 70.8 µM (inactive) | > 100 µM (inactive) | 28.6 µM (inactive) | > 100 µM (inactive) | > 100 µM (inactive) | > 100 µM (inactive) | > 100 µM (inactive) | > 100 µM (inactive) | > 100 µM (inactive) | > 100 µM (inactive) | > 100 µM (inactive) | 52.5 µM (inactive) | > 100 µM (inactive) | > 100 µM (inactive) | > 100 µM (inactive) | – | – |
| O=C1c2ccccc2C(=O)c2nn(N=P(CP(=Nn3nc4c(n3)C(=O)c3ccccc3C4=O)(c3ccccc3)c3ccccc3)(c3ccccc3)c3ccccc3)nc21 | > 100 µM (inactive) | > 100 µM (inactive) | > 100 µM (inactive) | > 100 µM (inactive) | > 100 µM (inactive) | > 100 µM (inactive) | > 100 µM (inactive) | > 100 µM (inactive) | – | > 100 µM (inactive) | > 100 µM (inactive) | > 100 µM (inactive) | > 100 µM (inactive) | – | > 100 µM (inactive) | > 100 µM (inactive) | > 100 µM (inactive) | – | 96.8 µM (inactive) | > 100 µM (inactive) |
| COc1ccc(C(=O)CCN(C)C)c2ccccc12 | 5.93 µM (inactive) | 6.78 µM (inactive) | 25.7 µM (inactive) | 19.4 µM (inactive) | 19.5 µM (inactive) | 18.9 µM (inactive) | 17.9 µM (inactive) | 17.8 µM (inactive) | > 100 µM (inactive) | > 59.8 µM (inactive) | 5.21 µM (inactive) | 17.6 µM (inactive) | 14.9 µM (inactive) | 23 µM (inactive) | – | 11.3 µM (inactive) | > 41.4 µM (inactive) | 21.5 µM (inactive) | 19.5 µM (inactive) | 16.3 µM (inactive) |
| CCOC(=O)C(NC(=O)Nc1ccccc1F)(OC)C(F)(F)F (stereo not given) | > 100 µM (inactive) | 44.5 µM (inactive) | > 100 µM (inactive) | > 100 µM (inactive) | – | > 100 µM (inactive) | > 100 µM (inactive) | – | – | – | – | > 100 µM (inactive) | > 100 µM (inactive) | > 100 µM (inactive) | > 100 µM (inactive) | > 100 µM (inactive) | – | > 100 µM (inactive) | – | – |
| Cc1nnc(N)s/c1=N/O | > 100 µM (inactive) | > 100 µM (inactive) | > 100 µM (inactive) | > 100 µM (inactive) | > 100 µM (inactive) | > 100 µM (inactive) | > 100 µM (inactive) | > 100 µM (inactive) | > 100 µM (inactive) | > 100 µM (inactive) | > 100 µM (inactive) | > 100 µM (inactive) | > 100 µM (inactive) | > 100 µM (inactive) | – | > 100 µM (inactive) | > 100 µM (inactive) | > 100 µM (inactive) | > 100 µM (inactive) | > 100 µM (inactive) |
| CC(=O)OCC1OC(OC2CC3C(C)(C)C(OC(C)=O)CC[C@]3(C)C3CCC45CC4(CCC5[C@@H](C)C[C@H](O)C(O)C(C)(C)O)[C@]23C)C(O)C(O)C1O (stereo not given in full) | > 10 µM (inactive) | > 10 µM (inactive) | > 10 µM (inactive) | > 10 µM (inactive) | > 10 µM (inactive) | > 10 µM (inactive) | > 10 µM (inactive) | > 10 µM (inactive) | > 10 µM (inactive) | > 10 µM (inactive) | > 10 µM (inactive) | > 10 µM (inactive) | > 10 µM (inactive) | > 10 µM (inactive) | – | > 10 µM (inactive) | > 10 µM (inactive) | > 10 µM (inactive) | 9.44 µM (inactive) | > 10 µM (inactive) |
